We go through one compound from patent US20250242033A1, “Novel Stannic Protoporfin Compositions, Methods of Making, and Uses Thereof” (Renibus Therapeutics, Inc., priority 2023, published 2025).

The test has as its system HO-1. Kind of test: HO-1/GAPDH mRNA in cortex after IV FeS + SnPP (biomarker for oxidative stress). Conditions: combined with iron sucrose. The class given is in vivo. On the procedure: The SnPP composition of Example 1 and the Comparative Example (1 micromole) were combined with iron sucrose (1 mg) to assess biomarkers for oxidative stress.

Consider `C=CC1=C(C)C2=Cc3c(C=C)c(C)c4[n]3[Sn]([Cl])([Cl])[n]3c(c(C)c(CCC(=O)O)c3=CC3=NC(=C4)C(C)=C3CCC(=O)O)=CC1=N2` [Example 1, Stannic protoporfin], for which the “HO-1 induction relative to the comparative example, in words” value was “lower HO-1 induction”.
